Measured values published in ChEMBL document CHEMBL1151484, “Preparation and anti-HIV activity of N-3 amino substituted thymidine nucleoside analogs” (Bioorg Med Chem Lett, 1992).

Assays:
CCRF-CEM [1] = assay: In vitro anti -HIV activity of compound determined against the LAV Bru infected CEM cells; Highly cytotoxic at low dose; format: functional, Homo sapiens
CCRF-CEM [2] = assay: In vitro anti -HIV activity of compound determined against the LAV Bru strain infected CEM cells at dose up to 100 uM; format: functional, Homo sapiens
[3] = Tested for bone marrow cell toxicity expressed as colony forming unit of granulocyte -macrophage at a compound concentration of 36/30 mM in experiment-1; format: cell-based; details: human
[4] = Tested for bone marrow cell toxicity expressed as colony forming unit of granulocyte -macrophage at a compound concentration of 0.036 mM in experiment-1; format: cell-based; details: human, 36 µM
[5] = Tested for bone marrow cell toxicity expressed as colony forming unit of granulocyte -macrophage at a compound concentration of 1 mM in experiment-2; format: cell-based; details: human, 1000 µM
[6] = Tested for bone marrow cell toxicity expressed as burst forming unit for erythrocyte at a compound concentration of 100 mM in experiment-2; format: cell-based; details: human
Mus musculus [7] = assay: Effect of compound on Friend Complex Murine Leukemia Virus (F-MuLV) induced splenomegaly, spleen weights at a dose of 12 mg/kg; format: functional
[8] = Tested for bone marrow cell toxicity expressed as burst forming unit for erythrocyte at a compound concentration of 36/30 mM in experiment-1; format: cell-based; details: human
[9] = Tested for bone marrow cell toxicity expressed as colony forming unit of granulocyte -macrophage at a compound concentration of 360 mM in experiment-1; format: cell-based; details: human
[10] = Tested for bone marrow cell toxicity expressed as burst forming unit for erythrocyte at a compound concentration of 360 mM in experiment-1; format: cell-based; details: human
[11] = Tested for bone marrow cell toxicity expressed as colony forming unit of granulocyte -macrophage at a compound concentration of 300 mM in experiment-1; format: cell-based; details: human
[12] = Tested for bone marrow cell toxicity expressed as colony forming unit of granulocyte -macrophage at a compound concentration of 3.6/30 mM in experiment-2; format: cell-based; details: human
Mus musculus [13] = assay: Effect of compound on Friend Complex Murine Leukemia Virus (F-MuLV) induced splenomegaly, expressed as percent inhibition at a dose of 4 mg/kg; format: functional
[14] = Tested for bone marrow cell toxicity expressed as colony forming unit of granulocyte -macrophage at a compound concentration of 10 mM in experiment-2; format: cell-based; details: human
Mus musculus [15] = assay: Effect of compound on Friend Complex Murine Leukemia Virus (F-MuLV) induced splenomegaly, expressed as percent inhibition at a dose of 40 mg/kg; format: functional
Mus musculus [16] = assay: Effect of compound on Friend Complex Murine Leukemia Virus (F-MuLV) induced splenomegaly, spleen weights at a dose of 4 mg/kg; format: functional
[17] = Tested for bone marrow cell toxicity expressed as burst forming unit for erythrocyte at a compound concentration of 3.6/3 mM in experiment-1; format: cell-based; details: human
[18] = Tested for bone marrow cell toxicity expressed as burst forming unit for erythrocyte at a compound concentration of 10 mM in experiment-2; format: cell-based; details: human
[19] = Tested for bone marrow cell toxicity expressed as colony forming unit of granulocyte -macrophage at a compound concentration of 36/30 mM in experiment-2; format: cell-based; details: human
[20] = Tested for bone marrow cell toxicity expressed as colony forming unit of granulocyte -macrophage at a compound concentration of 3.6/30 mM in experiment-1; format: cell-based; details: human
[21] = Tested for bone marrow cell toxicity expressed as burst forming unit for erythrocyte at a compound concentration of 0.036 mM in experiment-1; format: cell-based; details: human, 36 µM
[22] = Tested for bone marrow cell toxicity expressed as burst forming unit for erythrocyte at a compound concentration of 0.36 mM in experiment-1; format: cell-based; details: human, 360 µM
[23] = Tested for bone marrow cell toxicity expressed as burst forming unit for erythrocyte at a compound concentration of 1 mM in experiment-2; format: cell-based; details: human, 1000 µM
[24] = Tested for bone marrow cell toxicity expressed as burst forming unit for erythrocyte at a compound concentration of 0.036 mM in experiment-2; format: cell-based; details: human, 36 µM
[25] = Tested for bone marrow cell toxicity expressed as colony forming unit of granulocyte -macrophage at a compound concentration of 100 mM in experiment-2; format: cell-based; details: human
[26] = Tested for bone marrow cell toxicity expressed as burst forming unit for erythrocyte at a compound concentration of 3.6/3 mM in experiment-2; format: cell-based; details: human
Mus musculus [27] = assay: Effect of compound on Friend Complex Murine Leukemia Virus (F-MuLV) induced splenomegaly, spleen weights at a dose of 40 mg/kg; format: functional
Mus musculus [28] = assay: Effect of compound on Friend Complex Murine Leukemia Virus (F-MuLV) induced splenomegaly, expressed as percent inhibition at a dose of 12 mg/kg; format: functional
[29] = Tested for bone marrow cell toxicity expressed as colony forming unit of granulocyte -macrophage at a compound concentration of 0.36 mM in experiment-1; format: cell-based; details: human, 360 µM
[30] = Tested for bone marrow cell toxicity expressed as burst forming unit for erythrocyte at a compound concentration of 36/30 mM in experiment-2; format: cell-based; details: human
[31] = Tested for bone marrow cell toxicity expressed as colony forming unit of granulocyte -macrophage at a compound concentration of 0.3 mM in experiment-2; format: cell-based; details: human, 300 µM
[32] = Tested for bone marrow cell toxicity expressed as burst forming unit for erythrocyte at a compound concentration of 3 mM in experiment-1; format: cell-based; details: human, 3000 µM
[33] = Tested for bone marrow cell toxicity expressed as burst forming unit for erythrocyte at a compound concentration of 10 mM in experiment-1; format: cell-based; details: human
[34] = Tested for bone marrow cell toxicity expressed as colony forming unit of granulocyte -macrophage at a compound concentration of 30 mM in experiment-2; format: cell-based; details: human
[35] = Tested for bone marrow cell toxicity expressed as colony forming unit of granulocyte -macrophage at a compound concentration of 10 mM in experiment-1; format: cell-based; details: human
[36] = Tested for bone marrow cell toxicity expressed as burst forming unit for erythrocyte at a compound concentration of 30 mM in experiment-1; format: cell-based; details: human
[37] = Tested for bone marrow cell toxicity expressed as colony forming unit of granulocyte -macrophage at a compound concentration of 3 mM in experiment-1; format: cell-based; details: human, 3000 µM
[38] = Tested for bone marrow cell toxicity expressed as burst forming unit for erythrocyte at a compound concentration of 3 mM in experiment-2; format: cell-based; details: human, 3000 µM
[39] = Tested for bone marrow cell toxicity expressed as burst forming unit for erythrocyte at a compound concentration of 1 mM in experiment-1; format: cell-based; details: human, 1000 µM
[40] = Tested for bone marrow cell toxicity expressed as burst forming unit for erythrocyte at a compound concentration of 30 mM in experiment-2; format: cell-based; details: human
[41] = Tested for bone marrow cell toxicity expressed as burst forming unit for erythrocyte at a compound concentration of 100 mM in experiment-1; format: cell-based; details: human
[42] = Tested for bone marrow cell toxicity expressed as burst forming unit for erythrocyte at a compound concentration of 0.3 mM in experiment-2; format: cell-based; details: human, 300 µM
[43] = Tested for bone marrow cell toxicity expressed as colony forming unit of granulocyte -macrophage at a compound concentration of 1 mM in experiment-1; format: cell-based; details: human, 1000 µM
[44] = Tested for bone marrow cell toxicity expressed as colony forming unit of granulocyte -macrophage at a compound concentration of 100 mM in experiment-1; format: cell-based; details: human
[45] = Tested for bone marrow cell toxicity expressed as colony forming unit of granulocyte -macrophage at a compound concentration of 3 mM in experiment-2; format: cell-based; details: human, 3000 µM

Cc1cn(C2CC(F)C(CO)O2)c(=O)n(N)c1=O (stereo unspecified)
Activity (CCRF-CEM [1]): 0.1 µM

Cc1cn(C2C=CC(CO)O2)c(=O)n(N)c1=O (stereo unspecified)
Activity (CCRF-CEM [2]): 40 µM

Cc1cn(C2CC(N=[N+]=[N-])C(CO)O2)c(=O)n(N)c1=O (stereo unspecified)
CFU [3]: 28.3
CFU [4]: 48.3
CFU [5]: 12.3
BFU [6]: 158
Spleen weight (Mus musculus [7]): 715 mg
BFU [8]: 98
CFU [9]: 0.7
BFU [10]: 111
CFU [11]: 0.3
CFU [12]: 14
inhibition in vivo at 4 mg/kg (Mus musculus [13]): 28%
CFU [14]: 10
inhibition in vivo at 40 mg/kg (Mus musculus [15]): 55%
Spleen weight (Mus musculus [16]): 907 mg
BFU [17]: 140
BFU [18]: 170
CFU [19]: 11.3
CFU [20]: 31.3
BFU [21]: 94
BFU [22]: 142
BFU [23]: 249
BFU [24]: 10
CFU [25]: 9.3
BFU [26]: 218
Spleen weight (Mus musculus [27]): 607 mg
inhibition in vivo at 12 mg/kg (Mus musculus [28]): 46%
CFU [29]: 31.3
BFU [30]: 198

Cc1cn([C@H]2C[C@H](F)[C@@H](CO)O2)c(=O)[nH]c1=O [ALOVUDINE]
Activity (CCRF-CEM [1]): 0.1 µM

Cc1cn([C@H]2C[C@H](N=[N+]=[N-])[C@@H](CO)O2)c(=O)[nH]c1=O [ZIDOVUDINE]
CFU [5]: 4.7
CFU [31]: 10.7
BFU [32]: 88
BFU [33]: 76
Spleen weight (Mus musculus [7]): 669 mg
CFU [34]: 0
CFU [35]: 4.3
BFU [36]: 46
CFU [37]: 18.7
inhibition in vivo at 4 mg/kg (Mus musculus [13]): 46%
BFU [38]: 79
BFU [39]: 120
CFU [14]: 1
inhibition in vivo at 40 mg/kg (Mus musculus [15]): 78%
Spleen weight (Mus musculus [16]): 706 mg
BFU [40]: 59
BFU [18]: 79
BFU [41]: 4
BFU [23]: 132
BFU [42]: 143
CFU [43]: 33.4
Spleen weight (Mus musculus [27]): 357 mg
CFU [44]: 1
inhibition in vivo at 12 mg/kg (Mus musculus [28]): 50%
CFU [45]: 4.5
